# Test results taken from paper PMC8762250, “Identification of Novel Chemical Scaffolds that Inhibit the Growth of Mycobacterium tuberculosis in Macrophages” (Frontiers in Pharmacology, 2022).
# Values joined by “and” are separate entries in the source; they are usually repeats but may differ in a detail not shown here. Equal values may be shown once. Read-outs that look alike come from different tables or passages of the source. Marks after values point to notes of the source that are not given here.
# Assays:
# HepG2 cells = experiment: HepG2 cytotoxicity (CellTiter-Glo, 72 h); type: cell-based, human; details: for HepG2 cytotoxicity TC50 Galactose / HepG2 cytotoxicity TC50 Glucose: human, 72 h; for ratio of TC50glu/TC50gal: HepG2, glucose vs galactose
# Protocol: (§1) Cytotoxicity against HepG2 cells was measured after 72 h. Cells were seeded in 384-well plates at 1,800 cells per well. Compounds were added as a 10-point three-fold serial dilution after 24 h (final assay concentration of 1% DMSO). CellTiter-Glo® reagent (Promega) was added and relative luminescence units (RLU) measured. Data were normalized to the DMSO controls. Curves were fitted using the Levenberg–Marquardt algorithm; TC50 was calculated as the compound concentration required to reduce cell viability by 50%.
# (§2) We further evaluated cytotoxicity using the HepG2 cell line cultured with either glucose or galactose in the medium (Table 2). HepG2 cells cultured with galactose rely on mitochondrial oxidative phosphorylation rather than glycolysis which increases their susceptibility to mitochondrial toxicants allowing us to identify compounds with mitochondrial toxicity ([Kamalian et al., 2015]).
# M. tuberculosis [1] = experiment: Minimum inhibitory concentration in liquid medium (axenic culture); type: cell-based, Mycobacterium tuberculosis; details: Mycobacterium tuberculosis; for IC50: read-out: Anti-tubercular activity in axenic culture IC50
# M. tuberculosis [2] = experiment: High content assay of intracellular M. tuberculosis growth in infected RAW264.7 macrophages; type: cell-based, Mycobacterium tuberculosis H37Rv-LP; details: Mycobacterium tuberculosis, RAW264.7, 72 h, M. tuberculosis in RAW264.7 cells, MOI 1, 72 h; read-out: Intracellular activity Anti-tubercular activity IC50
# Protocol: Compounds were obtained in 384-well plates as 10 mM DMSO stock solutions and tested as described ([Manning et al., 2017]). Briefly, assay plates were prepared in clear bottom, black 384-well plates with 30 μl cRPMI and 0.6 μl compound in columns 3–22 (final concentration of 10 μM compound, 1% DMSO). […] INH and STA were also included in dose response on each plate. RAW264.7 cells were infected with M. tuberculosis DREAM8 as described ([Manning et al., 2017]) at an MOI of 1 for 24 h and extracellular bacteria removed by washing. Cells were recovered using Accumax, harvested, washed and resuspended in serum-free RPMI; 30 μl of infected cells were dispensed into each well at 3,300 cells/well. Plates were incubated for 72 h, 10 μl of 5X SYBR Green I was added and plates were imaged with an ImageXpress Micro High Content Screening System (Molecular Devices) using a ×4 objective and FITC and Texas Red channels. MetaXpress was used to analyze images. The integrated intensity of M. tuberculosis or macrophages was calculated for each well. Growth inhibition was calculated for each test well by normalizing to the average integrated intensity of the DMSO control wells. IC50 was calculated as the compound concentration required to reduce bacterial growth by 50%. TC50 was calculated as the compound concentration required to reduce macrophage viability by 50%.
# RAW264.7 cells = experiment: Macrophage viability in the same high content assay; details: infected RAW264.7 macrophages; for Intracellular activity Cytotoxicity TC50: 72 h; for Intracellular RAW TC50: SAR tables 4-8
# [3] = HepG2 cytotoxicity (CellTiter-Glo, 72 h); type: cell-based, human; details: human
# Protocol: as §1, §2
# [4] = 120 h, extracellular, 5 days, OD590
# [5] = 120 h, extracellular, 5 days, OD590, read-out: Anti-tubercular activity in axenic culture IC90
# [6] = HepG2 cytotoxicity IC50 Galactose
# [7] = HepG2 cytotoxicity IC50 Glucose
# [8] = axenic culture, SAR tables 4-8, read-out: Extracellular IC90
SMILES,HepG2 cytotoxicity TC50 Galactose (HepG2 cells),HepG2 cytotoxicity TC50 Glucose (HepG2 cells),IC50 (M. tuberculosis [1]; [4]),IC90 (M. tuberculosis [1]; [5]),IC50 (M. tuberculosis [2]),Intracellular activity Cytotoxicity TC50 (RAW264.7 cells),ratio of TC50glu/TC50gal (HepG2 cells),"IC50 at 72 h [3, 6]","IC50 at 72 h [3, 7]",IC90 (M. tuberculosis [1]; [8]),Intracellular RAW TC50 (RAW264.7 cells)
CCOC(=O)c1sc(NC(=O)Cc2c(F)cccc2Cl)nc1C [TPN-0089695],>100 ^e µM,>100 ^d µM,19 µM,> 20 µM,4.7 ± 1.2 µM,45 ± 17 ^b µM,,,,,
CCOC(=O)c1nnn(-c2nc(N3CCCC3)nc(N3CCCC3)n2)c1-c1ccccc1 [TPN-0095040],>50 ^c µM,>50 ^c µM,> 10 µM,> 10 µM,,31 ± 18 ^b µM,,,,,
Cc1ccc(NC(=O)CCN2CCN(c3ccc(Cl)cc3)CC2)cc1 [TPN-0095037],56 ± 4 ^b µM,84 ± 2.5 ^b µM,> 20 µM,> 20 µM,2 ± 0.53 µM,54 ± 26 ^c µM,,,,,
COc1c(Cl)ccc(Cl)c1C(=O)Nc1sc2c(c1C(N)=O)CCCC2 [TPN-0073571],26 ± 5.0 ^b µM,>100 ^b µM,,,,15 ± 5 µM and 15 ± 5.0 ^b µM,~4,26 ± 5 µM,> 100 µM,,
COc1ccc(C(=O)c2sc(NCc3ccccc3)nc2N)cc1 [TPN-0095041],24 ± 0.5 ^b µM,52 ± 5.5 ^b µM,14 ± 1 µM,> 20 µM,3.6 ± 0.5 µM,13 ± 5.5 ^c µM,,,,,
Fc1ccc(C2CC(c3ccc(Cl)cc3Cl)n3ncnc3N2)cc1 (stereo not drawn) [TPN-0095039],30 ± 3.2 ^d µM,29 ± 7.7 ^e µM,14 ± 2.1 µM,18 ± 1.4 µM,2.1 ± 0.74 µM,24 ± 6.1 ^c µM,,,,,
Brc1c(-c2ccccc2)nc2ccccn12 [TPN-0095038],>100 ^c µM,>100 ^b µM,9.2 ± 1 µM,> 20 µM,2.5 µM,72 ± 15 ^b µM,,,,,
Cc1c(Cc2ccccc2)sc(NC(=O)c2ccccc2Cl)c1C(N)=O [TPN-0073560],42 ± 3.3 ^c µM,>100 ^b µM,> 20 µM,> 20 µM,,23 ± 4.7 ^d µM,~4,42 ± 3.3 µM,> 100 µM,> 20 µM,23 ± 4.7 ^d µM
O=C(CN(C1=NCCCS1)c1ccccc1)c1ccc(Cl)c(Cl)c1 [TPN-0095036],20 ± 0.47 ^c µM,21 ± 3.4 ^c µM,> 20 µM,> 20 µM,3.5 ± 0.97 µM,27 ± 2.8 ^c µM,,,,,
Clc1c(-c2ccccc2)nc2ccccn12 [TPN-0095030],>100 ^b µM,>100 ^b µM,> 20 µM,> 20 µM,6.9 ± 1.9 µM,>100 ^b µM,,,,,
O=c1c(/C=N/Cc2cccnc2)c(NCc2cccnc2)nc2ccccn12 [TPN-0095033],>100 ^c µM,>100 ^c µM,> 20 µM,> 20 µM,3.4 ± 2.6 µM,>100 ^c µM,,,,,
Cc1ccc(OCC(=O)Nc2ccc(N3CCCCC3)c(Cl)c2)cc1 [TPN-0006206],>100 ^b µM,>100 ^b µM,> 20 µM,> 20 µM,,57 ± 20 ^b µM,,> 100 µM,> 100 µM,> 20 µM,57 ± 20 ^c µM
